According to patent publication US8933015B2, “Macrocyclic inhibitors of flaviviridae viruses” (Gilead Sciences, Inc., priority 2010, dated 2015):
Read-outs that look alike come from different tables or passages of the source.

What was measured:
[1] = rcm bond, 22-membered ring
[2] = tested on: human hepatoma Huh-7 cell line harboring a HCV replicon; assay: HCV replicon assay (inhibition of viral replication, luciferase); format: cell-based; details: Hepatitis C virus; for EC50: Huh-7, 72 h; for inhibition at 1 µM: Huh-7, read-out: % inhibition at 1 μM
Description: The anti-HCV activity of the compounds of this invention was tested in a human hepatoma Huh-7 cell line harboring a HCV replicon. The assay comprised the following steps:
Step 1: Compound Preparation and Serial Dilution
Serial dilution was performed in 100% DMSO in a 384-well plate. A solution containing a compound at 225-fold concentration of the starting final serial dilution concentration was prepared in 100% DMSO and 15 uL added to the pre-specified wells in column 3 or 13 of a polypropylene 384-well plate. The rest of the 384-well plate was filled with 10 uL 100% DMSO except for columns 23 and 24, where 10 uL of 500 uM a HCV protease inhibitor (ITMN-191) in 100% DMSO was added. […] The plate was then placed on a Biomek FX Workstation to start the serial dilution. The serial dilution was performed for ten cycles of 3-fold dilution from column 3 to 12 or from column 13 to 22.
Step 2: Cell Culture Plate Preparation and Compound Addition
To each well of a black polypropylene 384-well plate, 90 μL of cell media containing 1600 suspended Huh-7 HCV replicon cells was added with a Biotek uFlow Workstation. A volume of 0.4 μL of the compound solution was transferred from the serial dilution plate to the cell culture plate on a Biomek FX Workstation. The DMSO concentration in the final assay condition was 0.44%. The plates were incubated for 3 days at 37° C. with 5% CO2 and 85% humidity.
Step 3: Detection of Cytotoxicity and Inhibition of Viral Replication
b) Assessment of inhibition of viral replication: The calcein-PBS solution in the 384-well cell culture plate was aspirated with a Biotek EL405 plate-washer. A volume of 20 μL of Dual-Glo luciferase buffer (Promega, Dual-Glo Luciferase Assay Reagent, cat. #E298B) was added to each well of the plate with a Biotek uFlow Workstation. The plate was incubated for 10 minutes at room temperature. A volume of 20 μL of a solution containing 1:100 mixture of Dual-Glo Stop & Glo substrate (Promega, Dual-Glo Luciferase Assay Reagent, cat. #E313B) and Dual-Glo Stop & Glo buffer (Promega, Dual-Glo Luciferase Assay Reagent, cat. #E314B) was then added to each well of the plate with a Biotek uFlow Workstation. The plate was incubated at room temperature for 10 minutes before the luminescence signal was measured with a Perkin Elmer Envision Plate Reader.
The percent cytotoxicity was determined by calcein AM conversion to fluorescent product. The average fluorescent signal from the DMSO control wells were defined as 100% nontoxic. The individual fluorescent signal from testing compound treated well was divided by the average signal from DMSO control wells and then multiplied by 100% to get the percent viability. The percent anti-HCV replication activity was determined by the luminescence signal from the testing well compared to DMSO controls wells. The background signal was determined by the average luminescence signal from the HCV protease inhibitor treated wells and was subtracted from the signal from the testing wells as well as the DMSO control wells.
Where b is Hill's coefficient. See, for reference, Hill, A. V., The Possible Effects of the Aggregation of the Molecules of Hemoglobin on its Dissociation Curves, J. Physiol. 40: iv-vii. (1910).
% inhibition values at a specific concentration, for example 2 μM, can also be derived from the formula above.
The EC50's are presented as a % inhibition.

cyclophilin A = cyclophilin A (Homo sapiens, UniProt P62937); assay: Cyclophilin A TR-FRET competitive binding assay; details: inhibition of cyclophilin binding; 5 nM CypA, 150 nM CsA-Cy5
Chain of cyclophilin A (P62937 whole entry, species assumed): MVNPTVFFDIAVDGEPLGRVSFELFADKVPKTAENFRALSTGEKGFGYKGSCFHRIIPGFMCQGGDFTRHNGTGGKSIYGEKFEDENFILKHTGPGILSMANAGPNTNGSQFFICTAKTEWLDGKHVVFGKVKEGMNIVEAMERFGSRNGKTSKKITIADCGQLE
Description: Cyclophilin A TR-FRET Competitive Binding Assay
Inhibitor potency was measured using a competitive binding assay with a time-resolved fluorescence resonance energy transfer (TR-FRET) readout. […] The total volume of the assay solution was 100 μL. […] An IC50 value was calculated using a four-parameter logistic fit.

Q: For `CO[C@@H]1CC/C=C/c2cccc(c2)[C@@H](C)OC(=O)[C@@H]2CCCN(N2)C(=O)[C@H](Cc2cccc(O[Si](C)(C)C(C)(C)C)c2)NC(=O)[C@H](C(C)C)NC(=O)C1`, which ring closure, isolated yield ([1]; from C=CCC[C@H](CC(=O)N[C@H](C(=O)N[C@@H](Cc1cccc(O[Si](C)(C)C(C)(C)C)c1)C(=O)N1CCC[C@@H](C(=O)O[C@H](C)c2cccc(C=C)c2)N1)C(C)C)OC, Hoveyda-Grubbs II, DCE, 2.63 mM, 80.0 °C, 1.5 h) is on record?
A: The ring closure, isolated yield was 46%.

Q: Which ring closure, isolated yield ([1]; from C=CCC[C@@H](OC)[C@@H](C)C(=O)N[C@H](C(=O)N[C@@H](Cc1cccc(O[Si](C)(C)C(C)(C)C)c1)C(=O)N1CCC[C@@H](C(=O)N[C@H](C)c2cccc(C=C)c2)N1)C(C)C, Hoveyda-Grubbs II, DCE, 2.59 mM, 80.0 °C, 3.0 h) does the source give for `CO[C@@H]1CCC=Cc2cccc(c2)[C@@H](C)NC(=O)[C@@H]2CCCN(N2)C(=O)[C@H](Cc2cccc(O[Si](C)(C)C(C)(C)C)c2)NC(=O)[C@H](C(C)C)NC(=O)[C@@H]1C` here?
A: The ring closure, isolated yield was 22%.

Q: For `COc1ccc(C[C@@H]2NC(=O)[C@H](C)[C@H](OC)[C@@H](C)[C@@H](OC)C=CC=CCCOC(=O)[C@@H]3CCCN(N3)C(=O)[C@H](Cc3cccc(O[Si](C)(C)C(C)(C)C)c3)NC2=O)cc1`, which ring closure, isolated yield ([1]; from C=C/C=C\[C@H](OC)[C@H](C)[C@@H](OC)[C@@H](C)C(=O)N[C@@H](Cc1ccc(OC)cc1)C(=O)N[C@@H](Cc1cccc(O[Si](C)(C)C(C)(C)C)c1)C(=O)N1CCC[C@@H](C(=O)OCCC=C)N1, Grubbs I, DCM, 2.52 mM, 40.0 °C, 24.0 h) is on record?
A: The ring closure, isolated yield was 34%.

Q: Which ring closure, isolated yield ([1]; from C=C/C=C\[C@H](OC)[C@H](C)[C@@H](OC)[C@@H](C)C(=O)N[C@H](C(=O)N[C@@H](Cc1cccc(O[Si](C)(C)C(C)(C)C)c1)C(=O)N1CCC[C@@H](C(=O)O[C@H](C)CC=C)N1)C(C)C, Grubbs I (two portions), DCM, 2.0 mM, 40.0 °C, 42.0 h) does the source give for `CO[C@@H]1[C@@H](C)[C@@H](OC)C=CC=CC[C@@H](C)OC(=O)[C@@H]2CCCN(N2)C(=O)[C@H](Cc2cccc(O[Si](C)(C)C(C)(C)C)c2)NC(=O)[C@H](C(C)C)NC(=O)[C@@H]1C` here?
A: Its ring closure, isolated yield is 42%.

Q: For `CO[C@@H]1CCC=Cc2cccc(c2)[C@@H](C)OC(=O)[C@@H]2CCCN(N2)C(=O)[C@H](Cc2cccc(O[Si](C)(C)C(C)(C)C)c2)NC(=O)[C@H](C(C)C)NC(=O)[C@@H]1C`, which ring closure, isolated yield ([1]; from C=CCC[C@@H](OC)[C@@H](C)C(=O)N[C@H](C(=O)N[C@@H](Cc1cccc(O[Si](C)(C)C(C)(C)C)c1)C(=O)N1CCC[C@@H](C(=O)O[C@H](C)c2cccc(C=C)c2)N1)C(C)C, Hoveyda-Grubbs II, DCE, 2.68 mM, 83.0 °C, 3.0 h) is on record?
A: Its ring closure, isolated yield is 70%.

Q: With `CO[C@@H]1CCC=Cc2ccc3c(c2)[C@@H](CC3)OC(=O)[C@@H]2CCCN(N2)C(=O)[C@H](Cc2cccc(O[Si](C)(C)C(C)(C)C)c2)NC(=O)[C@H](C(C)C)NC(=O)[C@@H]1C` as the molecule, how does the ring closure, isolated yield ([1]; from C=CCC[C@@H](OC)[C@@H](C)C(=O)N[C@H](C(=O)N[C@@H](Cc1cccc(O[Si](C)(C)C(C)(C)C)c1)C(=O)N1CCC[C@@H](C(=O)O[C@@H]2CCc3ccc(C=C)cc32)N1)C(C)C, Hoveyda-Grubbs II (two portions), DCE, 3.16 mM, 83.0 °C, 6.0 h, 2 steps) read?
A: The ring closure, isolated yield was 14%.

Q: Which ring closure, isolated yield ([1]; from C=CCC[C@@H](OCC)[C@@H](C)C(=O)N[C@H](C(=O)N[C@@H](Cc1cccc(O[Si](C)(C)C(C)(C)C)c1)C(=O)N1CCC[C@@H](C(=O)OCc2cccc(C=C)c2)N1)C(C)C, Hoveyda-Grubbs II, DCE, 2.53 mM, 83.0 °C, 1.5 h) does the source give for `CCO[C@@H]1CC/C=C/c2cccc(c2)COC(=O)[C@@H]2CCCN(N2)C(=O)[C@H](Cc2cccc(O[Si](C)(C)C(C)(C)C)c2)NC(=O)[C@H](C(C)C)NC(=O)[C@@H]1C` here?
A: The ring closure, isolated yield was 66%.

Q: Which EC50 [2] does the source give for `COc1ccc(C[C@@H]2NC(=O)[C@H](C)[C@H](OC)[C@@H](C)[C@@H](OC)/C=C/C=C/CCOC(=O)[C@@H]3CCCN(N3)C(=O)[C@H](Cc3cccc(O)c3)NC2=O)cc1` [Compound 21, (13 E,15E)-(3S,6S,9R,10R,11S,12S,21S)-3-(3-Hydroxy-benzyl)-10,12-dimethoxy-6-(4-methoxy-benzyl)-9,11-dimethyl-19-oxa-1,4,7,25-tetraazabicyclo[19.3.1]pentacosa-13,15-diene-2,5,8,20-tetraone] here?
A: The EC50 was 1100 to 10000 nM.

Q: And the inhibition at 1 µM [2]?
A: The inhibition at 1 µM was 18%.

Q: What about the IC50 (cyclophilin A) of the same molecule?
A: The IC50 was 101 to 1000 nM.

Q: Which ring closure, isolated yield ([1]; from C=CCCCCOC(=O)[C@@H]1CCCN(C(=O)[C@H](Cc2cccc(O[Si](C)(C)C(C)(C)C)c2)NC(=O)[C@@H](NC(=O)[C@H](C)[C@@H](CCC=C)OC)C(C)C)N1, Grubbs II, DCE, 3.02 mM, 83.0 °C, 3.0 h) does the source give for `CO[C@@H]1CC/C=C/CCCCOC(=O)[C@@H]2CCCN(N2)C(=O)[C@H](Cc2cccc(O[Si](C)(C)C(C)(C)C)c2)NC(=O)[C@H](C(C)C)NC(=O)[C@@H]1C` here?
A: Its ring closure, isolated yield is 48%.

Q: With `CC(C)[C@@H]1NC(=O)[C@H](C)[C@H](O)c2ccc(cc2)CCCCOC(=O)[C@@H]2CCCN(N2)C(=O)[C@H](Cc2cccc(O)c2)NC1=O` [Compound 9, (8S,14S,17S,20R,21S)-21-Hydroxy-14-(3-hydroxy-benzyl)-17-isopropyl-20-methyl-6-oxa-12,15,18,27-tetraaza-tricyclo[20.2.2.1*8,12*]heptacosa-1(25),22(26),23-triene-7,13,16,19-tetraone] as the molecule, how does the EC50 [2] read?
A: The EC50 was 10100 to 100000 nM.

Q: And the inhibition at 1 µM [2]?
A: Its inhibition at 1 µM is 4%.

Q: And the IC50 (cyclophilin A)?
A: The IC50 was 1000 to 10000 nM.

Q: Which EC50 [2] does the source give for `CO[C@@H]1CCCCc2cccc(c2)[C@@H](C)OC(=O)[C@@H]2CCCN(N2)C(=O)[C@H](Cc2cccc(O)c2)NC(=O)[C@H](C(C)C)NC(=O)[C@@H]1C` [Compound 20, (2R,5S,11S,14S,17R,18R)-11-(3-Hydroxy-benzyl)-14-isopropyl-18-methoxy-2,17-dimethyl-3-oxa-9,12,15,28-tetraaza-tricyclo[21.3.1.1*5,9*]octacosa-1(27),23,25-triene-4,10,13,16-tetraone] here?
A: The EC50 was less than 1000 nM.

Q: And the inhibition at 1 µM [2]?
A: The inhibition at 1 µM was 92%.

Q: And the IC50 (cyclophilin A)?
A: Its IC50 is less than 100 nM.

Q: Which EC50 [2] does the source give for `CO[C@@H]1CC/C=C/c2cc(ccn2)COC(=O)[C@@H]2CCCN(N2)C(=O)[C@H](Cc2cccc(O)c2)NC(=O)[C@H](C(C)C)NC(=O)[C@@H]1C` [Compound 18, (E)-(1S,14R,15R,18S,21S)-21-(3-Hydroxy-benzyl)-18-isopropyl-14-methoxy-15-methyl-3-oxa-8,17,20,23,27-pentaaza-tricyclo[21.3.1.1*5,9*]octacosa-,7,9(28),10-tetraene-2,16,19,22-tetraone] here?
A: Its EC50 is less than 1000 nM.

Q: And the inhibition at 1 µM [2]?
A: The inhibition at 1 µM was 54%.

Q: And the IC50 (cyclophilin A)?
A: The IC50 was less than 100 nM.

Q: Which EC50 [2] does the source give for `CO[C@@H]1CC/C=C/c2cccc(c2)[C@@H](C)NC(=O)[C@@H]2CCCN(N2)C(=O)[C@H](Cc2cccc(O)c2)NC(=O)[C@H](C(C)C)NC(=O)[C@@H]1C` [Compound 16, (E)-(2R,5S,11S,14S,17R,18R)-11-(3-Hydroxy-benzyl)-14-isopropyl-18-methoxy-2,17-dimethyl-3,9,12,15,28-pentaaza-tricyclo[21.3.1.1*5,9*]octacosa-1(27),21,23,25-tetraene-4,10,13,16-tetraone] here?
A: Its EC50 is less than 1000 nM.

Q: What about the inhibition at 1 µM [2] of the same molecule?
A: Its inhibition at 1 µM is 75%.

Q: And the IC50 (cyclophilin A)?
A: The IC50 was less than 100 nM.

Q: Which EC50 [2] does the source give for `CO[C@@H]1CC/C=C/c2cccc(c2)[C@@H](C)OC(=O)[C@@H]2CCCN(N2)C(=O)[C@H](Cc2cccc(O)c2)NC(=O)[C@H](C(C)C)NC(=O)C1` [Compound 22, (E)-(2R,5S,11S,14S,18R)-11-(3-Hydroxy-benzyl)-14-isopropyl-18-methoxy-2-methyl-3-oxa-9,12,15,28-tetraaza-tricyclo[21.3.1.1*5,9*]octacosa-1(26),21,23(27),24-tetraene-4,10,13,16-tetraone] here?
A: The EC50 was less than 1000 nM.

Q: And the inhibition at 1 µM [2]?
A: The inhibition at 1 µM was 70%.

Q: And the IC50 (cyclophilin A)?
A: Its IC50 is less than 100 nM.
